From paper PMC8591608, “DNDI-6148: A Novel Benzoxaborole Preclinical Candidate for the Treatment of Visceral Leishmaniasis” (Journal of Medicinal Chemistry, 2021)

Experiments:
[1] = Liver microsome stability, hamster; assay type: in vitro ADME; details: golden (Syrian), hamster liver microsomes, pH 7.4, Table 4, read-out: HamLM Clint
Method: (§1) Tests were performed by WuXi AppTec, China. Test compounds (at 1 μM) or positive controls (testosterone, propafenone, and diclofenac) were incubated at 37 °C with liver microsomes from Balb/c mouse, golden (Syrian) hamster, Sprague-Dawley rat, Beagle dog, or human in the presence of a NADPH regenerating system and phosphate buffer (100 mM, pH 7.4) at 0.4 or 0.8 mg/mL microsomal protein. The samples were removed at time intervals from 0 to 60, 90, or 120 min and immediately mixed with cold methanol supplemented or not with acid (3% formic acid) and centrifuged prior to analysis by LC-MS/MS using tolbutamide or propranolol as internal standards.

L. infantum = experiment: Intramacrophage L. infantum assay; assay type: cell-based; details: Leishmania infantum; Table 4; geometric mean of at least two independent tests; read-out: intramacrophage L. infantum EC50
Method: L. infantum (MHOM/MA/67/ITMAP263) and L. donovani (MHOM/ET/67/L82) were maintained in the golden (Syrian) hamster (Mesocricetus auratus). Ex vivo amastigotes were collected from the spleen of an infected donor hamster using two centrifugation purification steps: 230g for 10 min, keeping the supernatant layer, and 4100g for 30 min, keeping the pellet. The spleen parasite burden was assessed using the Stauber technique.[25] For in vitro assays, the inoculum was prepared in RPMI-1640 medium, supplemented with 200 mM L-glutamine, 16.5 mM NaHCO3, and 5% inactivated fetal calf serum. For the in vivo model, an infection inoculum containing 2 × 10^7 amastigotes/100 μL was prepared in phosphate-buffered saline (PBS).
The assay was performed in sterile 96-well microtiter plates, each well containing 10 μL of the compound dilution and 190 μL of the PMM/amastigote inoculum (3 × 10^4 cells/4.5 × 10^5 parasites per well). Parasite multiplication was compared to untreated infected controls (100% growth) and uninfected controls (0% growth). After five-day incubation, total parasite burdens were microscopically assessed after staining the cells with a 10% Giemsa solution. The results were expressed as a percentage reduction in parasite burden compared to untreated control wells. EC50 values were determined using an extended dose range (2-fold compound dilutions, 8-point concentration curve). Miltefosine was used as the reference drug.[26] For selected compounds, this assay format was also run using the L. donovani inoculum.

PMM cytotoxicity assay = assay type: cell-based; details: mouse, primary peritoneal mouse macrophages (PMM); Table 4; geometric mean of at least two independent tests
Method: (§2) Primary peritoneal mouse macrophages (PMM) were collected two days after peritoneal stimulation with a 2% potato starch suspension. MRC5SV2 cells (diploid human embryonic lung fibroblasts) were cultured in minimal essential medium (MEM) containing Earle’s salts, supplemented with L-glutamine, NaHCO3, and 5% inactivated fetal calf serum. All cultures and assays were conducted at 37 °C under an atmosphere of 5% CO2.
(§3) Assays were performed in sterile 96-well microtiter plates, each well containing 10 μL of the compound dilution and 190 μL of MRC5SV2 or PMM inoculum (3 × 10^4 cells/mL). Cell growth was compared to untreated controls (100% growth) and assay-media controls (0% growth). After three-day incubation, cell viability was assessed fluorometrically by adding resazurin (50 μL/well of a stock solution in phosphate buffer (50 μg/mL)), incubating for 4 h and measuring fluorescence (λex 550 nm, λem 590 nm). The results were expressed as a percentage reduction in cell growth compared to untreated control wells. […] Tamoxifen was included as the reference drug.

MRC5 cytotoxicity assay = assay type: cell-based; details: human, MRC5SV2 cells (human embryonic lung fibroblasts); Table 4; geometric mean of at least two independent tests
Method: as §2, §3

[2] = Liver microsome stability, human; assay type: in vitro ADME; details: human liver microsomes, pH 7.4, Table 4, read-out: HLM Clint
Method: as §1

SMILES | microsomal CLint at 2 h, 1 µM [1] | EC50 (L. infantum) | CC50 at 3 days (PMM cytotoxicity assay) | CC50 at 3 days (MRC5 cytotoxicity assay) | microsomal CLint at 1 μM [2] | CC50 at 72 h (PMM cytotoxicity assay) | CC50 at 72 h (MRC5 cytotoxicity assay)
O=C(Nc1ccc2c(c1)B(O)OC2)c1cn(C(F)(F)F)nc1C(F)(F)F [Compound 4, N-(1-Hydroxy-1,3-dihydrobenzo[c][1,2]oxaborol-6-yl)-1,3-bis(trifluoromethyl)-1H-pyrazole-4-carboxamide] | 1040 µL/min/mg | 2.1 µM | > 64 µM | > 64 µM | < 11.9 µL/min/mg | – | –
O=C(Nc1ccc2c(c1)B(O)OC2)c1cn(CCC(F)(F)F)nc1C(F)(F)F [Compound 6, N-(1-Hydroxy-1,3-dihydrobenzo[c][1,2]oxaborol-6-yl)-3-(trifluoromethyl)-1-(3,3,3-trifluoropropyl)-1H-pyrazole-4-carboxamide] | 114 µL/min/mg | 1.3 µM | – | – | < 11.9 µL/min/mg | 38 µM | 49 µM
Cc1nn(CCC(F)(F)F)cc1C(=O)Nc1ccc2c(c1)B(O)OC2 [Compound 7, N-(1-Hydroxy-1,3-dihydrobenzo[c][1,2]oxaborol-6-yl)-3-methyl-1-(3,3,3-trifluoropropyl)-1H-pyrazole-4-carboxamide] | – | 5.7 µM | > 64 µM | > 64 µM | – | – | –
Cc1nn(C2CCC2)cc1C(=O)Nc1ccc2c(c1)B(O)OC2 [Compound 8, Cyclobutyl-N-(1-hydroxy-1,3-dihydrobenzo[c][1,2]oxaborol-6-yl)-3-methyl-1H-pyrazole-4-carboxamide] | 57 µL/min/mg | 16 µM | > 64 µM | > 64 µM | < 11.9 µL/min/mg | – | –
O=C(Nc1ccc2c(c1)B(O)OC2)c1cn(C2CCC2)nc1C(F)(F)F [Compound 9, 1-Cyclobutyl-N-(1-hydroxy-1,3-dihydrobenzo[c][1,2]oxaborol-6-yl)-3-(trifluoromethyl)-1H-pyrazole-4-carboxamide] | 337 µL/min/mg | 0.59 µM | – | – | < 11.9 µL/min/mg | 32 µM | 26 µM
O=C(Nc1ccc2c(c1)B(O)OC2)c1cn(C2CCOCC2)nc1C(F)(F)F [Compound 10, N-(1-Hydroxy-1,3-dihydrobenzo[c][1,2]oxaborol-6-yl)-1-(tetrahydro-2H-pyran-4-yl)-3-(trifluoromethyl)-1H-pyrazole-4-carboxamide] | 109 µL/min/mg | 3 µM | > 64 µM | > 64 µM | < 11.9 µL/min/mg | – | –
Cc1nn(-c2ccccn2)cc1C(=O)Nc1ccc2c(c1)B(O)OC2 [Compound 11, N-(1-Hydroxy-1,3-dihydro-2,1-benzoxaborol-6-yl)-3-methyl-1-(pyridine-2-yl)-1H-pyrazole-4-carboxamide] | – | 5.7 µM | > 64 µM | > 64 µM | < 11.9 µL/min/mg | – | –
COc1ccccc1-n1cc(C(=O)Nc2ccc3c(c2)B(O)OC3)c(C)n1 [Compound 14, N-(1-Hydroxy-1,3-dihydro-2,1-benzoxaborol-6-yl)-1-(2-methoxyphenyl)-3-methyl-1H-pyrazole-4-carboxamide] | – | 2.2 µM | > 64 µM | – | – | – | 15.7 µM
Cc1c(C(=O)Nc2ccc3c(c2)B(O)OC3)cnn1CCC(F)(F)F [Compound 15, N-(1-Hydroxy-1,3-dihydrobenzo[c][1,2]oxaborol-6-yl)-5-methyl-1-(3,3,3-trifluoropropyl)-1H-pyrazole-4-carboxamide] | 48 µL/min/mg | 14 µM | > 64 µM | > 64 µM | < 11.9 µL/min/mg | – | –
